Test systems include A549 NSCLC; IGROV1 ovarian; NCI/ADR-RES ovarian; OVCAR-3 ovarian; PC-3 prostate; SNB-19 CNS; U251 CNS; UACC-257 melanoma.
What all share (test): DTP human tumour cell line panel, 48 h

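Compound exposure: 48 hours, 5 concentrations, 96-well plates. At the GI50, growth is halved. At the TGI there is no net growth.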

What is called GI50 is the concentration that inhibits growth by half. A word on the TGI: it is the concentration giving total growth inhibition. Turning to `CN(C)c1ccc(/C=C(\C#N)c2cc3ccccc3n2C)cc1`, the 50% growth inhibitory concentration (GI50) with A549 NSCLC is 0.226 µM; in the assay on IGROV1 ovarian, 0.143 µM; in the assay on NCI/ADR-RES ovarian it was 0.0895 µM; in the assay on OVCAR-3 ovarian, 0.123 µM; in the assay with PC-3 prostate, 0.204 µM; in the assay on SNB-19 CNS, 0.357 µM. Further, the GI50 was 0.357 µM in the assay on U251 CNS and 2.98 µM with UACC-257 melanoma. Further, the TGI in the assay with A549 NSCLC is over 100 µM; in the assay on IGROV1 ovarian, over 100 µM; in the assay with NCI/ADR-RES ovarian, over 100 µM; in the assay on OVCAR-3 ovarian it was 1.27 µM; with PC-3 prostate, over 100 µM; in the assay with SNB-19 CNS, over 100 µM. Further, the TGI in the assay with U251 CNS and in the assay on UACC-257 melanoma was over 100 µM in each case.
In the case of `C=CCCC(O)c1ccc(C(O)CCCCCCCCCCCC)o1` (centres undefined), the GI50 in the assay with A549 NSCLC is 17.7 µM; with IGROV1 ovarian it was 18.7 µM; in the assay with NCI/ADR-RES ovarian, 20.9 µM; with OVCAR-3 ovarian, 18.7 µM; in the assay with PC-3 prostate it was 22.8 µM; in the assay with SNB-19 CNS, 51.6 µM. Moreover, the GI50 with U251 CNS is 17.5 µM; with UACC-257 melanoma it was 19.2 µM. Moreover, the TGI with A549 NSCLC is 39.2 µM; in the assay with IGROV1 ovarian, 43.2 µM; with NCI/ADR-RES ovarian, 45.8 µM; in the assay on OVCAR-3 ovarian, 35.7 µM; in the assay on PC-3 prostate, 47.8 µM; in the assay on SNB-19 CNS, over 100 µM. Moreover, the figures for the total growth inhibition concentration (TGI) in the assay on U251 CNS and in the assay with UACC-257 melanoma were 31.9 µM and 40.1 µM, respectively.
As for `O=C1CSC(=S)N1c1ccc(F)cc1F`, the concentration for total growth inhibition (TGI) in the assay with A549 NSCLC, in the assay on IGROV1 ovarian, in the assay on NCI/ADR-RES ovarian, in the assay with OVCAR-3 ovarian, in the assay on PC-3 prostate and in the assay with SNB-19 CNS was over 100 µM throughout. Besides, the TGI with U251 CNS and in the assay on UACC-257 melanoma was over 100 µM in each case.
`O=C(N/N=C/c1coc2ccc(Cl)cc2c1=O)c1ccncc1`: the GI50 in the assay on A549 NSCLC is 98.2 µM; in the assay with IGROV1 ovarian, 24.8 µM; in the assay on NCI/ADR-RES ovarian, 35.5 µM; in the assay on OVCAR-3 ovarian, 68.5 µM; in the assay on PC-3 prostate, 59.1 µM; in the assay on SNB-19 CNS, over 100 µM. The GI50 in the assay with U251 CNS is 39.7 µM; in the assay with UACC-257 melanoma it was 56.8 µM. Besides, the TGI in the assay on A549 NSCLC, with IGROV1 ovarian, in the assay on NCI/ADR-RES ovarian, with OVCAR-3 ovarian, with PC-3 prostate and in the assay on SNB-19 CNS was over 100 µM each time. Further, the total growth inhibition concentration (TGI) with U251 CNS and with UACC-257 melanoma was over 100 µM each time.
Take `CCCCCCCCCCCC1=NC(C)(C)CN1CCO`: the GI50 was 6.93 µM in the assay with A549 NSCLC; 2.57 µM with IGROV1 ovarian; 13.9 µM in the assay with NCI/ADR-RES ovarian; 5.87 µM with OVCAR-3 ovarian; 3.29 µM in the assay with PC-3 prostate; 15.1 µM in the assay with SNB-19 CNS. Moreover, the values for the GI50 in the assay with U251 CNS and with UACC-257 melanoma were 2.8 µM and 3.63 µM, respectively. Besides, the TGI stood at 21.9 µM in the assay on A549 NSCLC; 6.67 µM in the assay with IGROV1 ovarian; 29.5 µM in the assay with NCI/ADR-RES ovarian; 11.3 µM in the assay on OVCAR-3 ovarian; 17.2 µM in the assay with PC-3 prostate; 30.9 µM in the assay with SNB-19 CNS. In addition, the total growth inhibition concentration (TGI) in the assay with U251 CNS is 9.46 µM; in the assay with UACC-257 melanoma it was 11.5 µM.
As to `O=C1Nc2ccccc2C1(c1ccc(O)c(F)c1)c1ccc(O)c(F)c1`, the GI50 in the assay on A549 NSCLC is 19.1 µM; in the assay on IGROV1 ovarian it was 3.19 µM; in the assay on NCI/ADR-RES ovarian, 0.389 µM; with OVCAR-3 ovarian it was 0.295 µM; in the assay with PC-3 prostate, 1.08 µM; in the assay on SNB-19 CNS, 19.1 µM. The figures for the GI50 with U251 CNS and in the assay on UACC-257 melanoma were 14.5 µM and 24.6 µM, respectively. In addition, the total growth inhibition concentration (TGI) in the assay with A549 NSCLC was 81.8 µM; with IGROV1 ovarian it was 50.6 µM; in the assay with NCI/ADR-RES ovarian, over 100 µM; with OVCAR-3 ovarian, 0.918 µM; in the assay with PC-3 prostate, 6.95 µM; in the assay on SNB-19 CNS, 69 µM. The concentration for total growth inhibition (TGI) with U251 CNS was found to be 48.6 µM; with UACC-257 melanoma, 67.5 µM.
For the compound `CSC(=S)N/N=C/c1ccccc1`, the concentration for total growth inhibition (TGI) in the assay with A549 NSCLC, in the assay with IGROV1 ovarian, with NCI/ADR-RES ovarian, with OVCAR-3 ovarian, in the assay on PC-3 prostate and with SNB-19 CNS was over 100 µM each time. Further, the TGI with U251 CNS and in the assay on UACC-257 melanoma was over 100 µM in each case.
For `COc1cc(-c2cc(/C=C/C(=O)c3ccc4c(c3)OCO4)[nH]n2)cc(OC)c1OC`, the GI50 in the assay on A549 NSCLC was 4.32 µM; with IGROV1 ovarian, 5 µM; with NCI/ADR-RES ovarian, 4.23 µM; with OVCAR-3 ovarian it was 3.38 µM; in the assay on PC-3 prostate, 2.81 µM; in the assay on SNB-19 CNS it was 4.3 µM. Also, the GI50 in the assay on U251 CNS was 2.01 µM; with UACC-257 melanoma it was 2.46 µM. The TGI is over 100 µM in the assay with A549 NSCLC; 62.1 µM in the assay on IGROV1 ovarian; over 100 µM in the assay with NCI/ADR-RES ovarian; 12.3 µM in the assay on OVCAR-3 ovarian; 13.7 µM in the assay on PC-3 prostate; over 100 µM in the assay on SNB-19 CNS. Also, the TGI with U251 CNS stood at 5.45 µM; in the assay on UACC-257 melanoma, 40.3 µM.
Take `Fc1ccc(CNc2c3ccccc3nc3ccccc23)cc1`: the GI50 in the assay with A549 NSCLC was 2.84 µM; in the assay with IGROV1 ovarian, 2.3 µM; with NCI/ADR-RES ovarian, 2.33 µM; with OVCAR-3 ovarian it was 2.37 µM; in the assay with PC-3 prostate it was 3.11 µM; with SNB-19 CNS, 3.66 µM. For the same compound, the GI50 was 3.02 µM in the assay with U251 CNS and 2.59 µM in the assay on UACC-257 melanoma. For the same compound, the concentration for total growth inhibition (TGI) in the assay with A549 NSCLC is 10.8 µM; with IGROV1 ovarian it was 6.02 µM; in the assay with NCI/ADR-RES ovarian, 8.07 µM; in the assay on OVCAR-3 ovarian, 5.43 µM; in the assay on PC-3 prostate it was 16.8 µM; in the assay on SNB-19 CNS it was 15.4 µM. The TGI in the assay on U251 CNS came to 14.1 µM; in the assay with UACC-257 melanoma it was 7.02 µM.
Regarding `O=C(O)c1cc(N/C=C2\C(=O)c3ccccc3OC2O)ccc1O` (centres undefined), the GI50 with A549 NSCLC was 53.7 µg/mL; in the assay on IGROV1 ovarian, 20.6 µg/mL; in the assay with NCI/ADR-RES ovarian, 21.1 µg/mL; in the assay on OVCAR-3 ovarian, 14.6 µg/mL; with PC-3 prostate, 29.4 µg/mL; in the assay on SNB-19 CNS, 19.9 µg/mL. Moreover, the GI50 in the assay with U251 CNS is 18 µg/mL; in the assay with UACC-257 melanoma, 33.4 µg/mL. Moreover, the TGI in the assay on A549 NSCLC was over 150 µg/mL; in the assay on IGROV1 ovarian, 61.8 µg/mL; with NCI/ADR-RES ovarian, 82.8 µg/mL; in the assay on OVCAR-3 ovarian, 47.2 µg/mL; in the assay on PC-3 prostate it was 120 µg/mL; with SNB-19 CNS, 67.5 µg/mL. For the same compound, the TGI worked out at 43.6 µg/mL with U251 CNS and 93.7 µg/mL in the assay on UACC-257 melanoma.

Values taken from PubChem BioAssay (NCI).
